Laboratory results from article PMC5603908 (Biochemistry, 2017).
No end group written: not given here.

Columns and labels:
[1] = test system: E. coli ATCC 25922; conditions: minimal inhibitory concentration, microdilution method
[2] = test system: human red blood cells
[3] = test system: methicillin-resistant S. aureus (MRSA) USA300; conditions: minimal inhibitory concentration, microdilution method
[4] = test system: human HaCaT cells; conditions: cited from earlier work
[5] = test system: human HEK293 cells; conditions: cited from earlier work
[6] = test system: S. aureus USA300; conditions: after peptide treatment; cited from earlier work

## WWRLRRIW-NH2 [W3R]
[1]
  E. coli (MIC): 25 µM
[2]
  HL50: >200 µM

## WWWLRRIR-NH2 [W8R]
[1]
  E. coli (MIC): 25 µM
[2]
  HL50: >200 µM

## WWWLRRRW-NH2 [I7R]
[1]
  E. coli (MIC): 6.2 µM
[3]
  S. aureus (MIC): 3.1 µM
[2]
  HL50: 150 µM

## RWWLRRIW-NH2 [W1R]
[1]
  E. coli (MIC): 25 µM
[2]
  HL50: >200 µM

## WWWLRRIW-NH2 [WT]
[1]
  E. coli (MIC): 6.2 µM
[4]
  cytotoxicity: less cytotoxic
[3]
  S. aureus (MIC): 3.1 µM
[5]
  cytotoxicity: less cytotoxic
[2]
  HL50: 35 µM

## WWWLRKIW-NH2 [TetraF2W-RK]
[6]
  time to entry of non-permeable dye FITC into S. aureus: 30 s

## WRWLRRIW-NH2 [W2R]
[1]
  E. coli (MIC): 25 µM
[3]
  S. aureus (MIC): 6.2 µM
[2]
  HL50: 100 µM

## WWWRRRIW-NH2 [L4R]
[1]
  E. coli (MIC): 25 µM
[2]
  HL50: >200 µM
